Source: patent publication US11484533B2, “Methods and compositions for treating obesity” (UNIVERSITY OF SOUTH CAROLINA, priority 2019, dated 2022)

Experiments:
DIO mice [1] = assay: Fasting metabolic parameters in DIO mice, pre- and post-intervention; format: in vivo, C57BL/6J male mice; settings: HFD+SR vs HFD+Veh and HFD-PFSR; pre- and post- 4-week intervention; 5 h fasted
Description: C57BL/6J male mice (Jackson Laboratory, Bar Harbor, Me.) were fed HFD consisting of 60% Kcal from fat (D12492, Research Diets Inc, New Brunswick, N.J.) for 12 weeks before starting the intervention treatment with SR141716A. Additionally, age-matched C57BL/6J male mice were fed a low fat diet (LFD) consisting of 10% Kcal from fat (D12450J, Research Diets Inc, New Brunswick, N.J.) to develop lean controls. SR141716A was obtained from NIDA and administered at a dose of 10 mg/kg daily by oral gavage for 4 weeks, beginning after 12 weeks of diet and ending after 16 weeks. A pair-fed control group was used (HFD-PFSR) in which food intake was restricted to the amount of daily food intake of the HFD+SR group. […]
Measurements of blood glucose, insulin, total cholesterol, and triglycerides were performed in animals fasted for 5 hours. […] The glucose level in whole blood was measured with a glucometer (Bayer, Leverkusen, Germany). Insulin concentration was determined in isolated plasma using an ELISA kit (Abcam, Cambridge, Mass.). Total cholesterol (Genzyme, Kent, United Kingdom) and triglycerides (Pointe Scientific, Canton, Mich.) were determined by colorimetric enzymatic reaction according to the manufacturer's instructions. To quantify insulin resistance, the homeostatic model assessment of insulin resistance index (HOMA-IR) was calculated as previously described.

DIO mice [2] = assay: Diet-induced obesity (DIO) mice treated with SR141716A: body weight, caloric intake, DEXA body composition; format: in vivo, C57BL/6J male mice
Description: (§1) C57BL/6J male mice (Jackson Laboratory, Bar Harbor, Me.) were fed HFD consisting of 60% Kcal from fat (D12492, Research Diets Inc, New Brunswick, N.J.) for 12 weeks before starting the intervention treatment with SR141716A. Additionally, age-matched C57BL/6J male mice were fed a low fat diet (LFD) consisting of 10% Kcal from fat (D12450J, Research Diets Inc, New Brunswick, N.J.) to develop lean controls. SR141716A was obtained from NIDA and administered at a dose of 10 mg/kg daily by oral gavage for 4 weeks, beginning after 12 weeks of diet and ending after 16 weeks. A pair-fed control group was used (HFD-PFSR) in which food intake was restricted to the amount of daily food intake of the HFD+SR group. All mice were maintained in an AAALAC-accredited animal facility at the University of South Carolina, School of Medicine (Columbia, S.C.). All procedures were performed according to NIH guidelines under protocols approved by the Institutional Animal Care and Use Committee.
The body composition in mice was analyzed by dual-energy X-ray absorptiometry (DEXA, LUNAR, Madison, Wis.). The mice were anesthetized and placed in the prone position on the specimen tray to allow scanning of the entire body. For food intake measurements, mice were given a defined amount of large intact food pellet weekly, or daily for the HFD-PFSR group. Food weight was measured using a balance with a precision of 0.01 g. Solid food intake was corrected for any visible spillage.
To study the effects of CB1 antagonist on obesity parameters, DIO mice that were fed a 60% HFD for 12 weeks were treated with SR141716A (SR) by daily oral gavage for 4 weeks (FIG. 1A). All other experimental groups were treated with the vehicle (Veh) 0.1% Tween® 80. In addition to the HFD+SR group, other experimental groups included mice fed a 10% low-fat control diet (LFD) (LFD+Veh), ad-libitum HFD-fed mice (HFD+Veh), and HFD-fed mice that were pair-fed to the HFD+SR group (HFD-PFSR) (FIG. 1B). […] At the baseline of the study, the mice were stratified into groups balanced by mean fat mass. […] Fasting parameters including blood glucose, insulin, insulin resistance index (HOMA-IR), total cholesterol and triglycerides were examined pre- and post- the 4-week intervention with SR compound.

macrophage CB1 = assay: BMDM treated in vitro with 3T3-L1 adipocyte conditioned medium and SR141716A; format: cell-based, mouse; settings: adipocyte conditioned medium, vs DMSO
Description: TNF, IL-6, and IFNγ ELISA kits were purchased from BioLegend. Netrin-1 ELISA kits were purchased from USCN Life Science (Houston, Tex.). Concentrations were measured in cell supernatants using mouse standards according to the manufacturer's guidelines.
Next, to confirm that the M2 polarization and decreased ATM retention observed in HFD+SR treated mice was a direct effect of CB1 blockade and not a secondary effect due to weight loss or other factors, primary macrophages were treated in vitro with 3T3-L1 adipocyte conditioned media and SR141716A or DMSO vehicle control. […] These findings confirmed that blockade of macrophage CB1 signaling has anti-inflammatory effects.

[3] = tested on: adipose tissue macrophages (ATMs); assay: qRT-PCR and Western blot in adipose tissue macrophages (ATM) of treated DIO mice; format: in vivo, C57BL/6J male mice
Description: Epididymal fat pads of mice were excised and placed in gentleMACS™ C Tubes (Miltenyi Biotec, San Diego, Calif.) containing digestion medium (HBSS, 2 mg/ml collagenase (Sigma-Aldrich, St. Louis, Mo.) and 2% BSA), followed by homogenization utilizing a gentleMACS™ Dissociator (Miltenyi Biotec). After incubation at 37° C. for 30 minutes with gentle shaking, the cell suspension was filtered through a 100-μm filter and then spun at 300 g for 5 minutes to separate floating adipocytes from the stromal vascular fraction (SVF) pellet. Isolation of F4/80+ ATMs from the SVF was performed using EasySep™ FITC Positive Selection Kit (STEMCELL Technologies, Vancouver, B.C.). FITC-anti-F4/80 antibodies (Clone: BM8, BioLegend®, San Diego, Calif.) were used to label the cells for positive selection. Isolated cells were lysed for RNA analysis in QIAzol (Qiagen, Valencia, Calif.) and stored at −80° C. until RNA purification.
ATM RNA was isolated by miRNeasy Mini Kit (Qiagen). For RNA extraction from whole adipose tissue, 1 mg of adipose tissue was homogenized in RNA-Solv® Reagent with OBI's HiBind® technology reagent (Omega Bio-tek, Norcross, Ga.) and total RNA was isolated as previously described (31). RNA quality was verified by NanoDrop™ 2000C (Thermo Scientific™, Waltham, Mass.). Purified RNA (0.5-1 μg) was reverse-transcribed using miScript cDNA Synthesis Kit (Qiagen), and qRT-PCR analysis was conducted using SsoAdvanced™ Universal SYBR® Green Supermix kit (Bio-Rad, Hercules, Calif.). Fold change in mRNA expression was calculated using the comparative cycle method (2^−ΔΔCt).
Western blot analyses were carried out according to standard protocols with antibodies raised against Netrin-1 (R&D Systems, Minneapolis, Minn.) or γ-tubulin (Sigma-Aldrich, St. Louis, Mo.), which was used as a loading control.

[4] = tested on: thioglycollate-elicited peritoneal macrophages; assay: Migration of peritoneal macrophages towards CCL19; format: cell-based, mouse; settings: SR141716A 10^−6 M vs DMSO; CCL19 500 ng/ml; 3T3-L1 conditioned medium
Description: The migration of macrophages to CCL19 (500 ng/ml, R&D Systems) was assessed by FluoroBlock™ permeable inserts (Corning®, Tewksbury, Mass.) and Cytation™5 imaging (BioTek, Winooski, Vt.). Peritoneal macrophages were harvested from mice primed with 1 ml of 3% (wt/vol) thioglycolate (i.p.) to elicit peritoneal exudates with macrophage number peaking on day 4. Macrophages were collected in euthanized mice by intraperitoneal wash. For tracking migration towards chemoattractants, macrophages were labeled with DilC12(3) fluorescent dye (Corning®, Tewksbury, Mass.). Macrophages were treated with conditioned media from 3T3-L1 adipocytes as described and treated either with SR141716A (10^−6 M) or DMSO as the vehicle control.
To test this, thioglycollate-elicited peritoneal macrophages were isolated and cultured them in 3T3-L1 adipocyte conditioned medium and treated them with SR141716A or vehicle. Their migration rate towards CCL19 was measured because CCL19 is the primary chemokine implicated in emigration of tissue macrophages towards draining lymph nodes.

DIO mice [5] = settings: cited from earlier work
[6] = tested on: epididymal adipose tissue; assay: qRT-PCR of macrophage polarization genes in epididymal fat of DIO mice; format: in vivo, C57BL/6J male mice
Description: as §1
After 4 weeks of treatment, mice were euthanized for tissue collection. Tissues were removed, weighed, and immediately processed to single cell suspension, snap-frozen in liquid nitrogen and stored at −80° C., or fixed in 10% formalin.
ATM RNA was isolated by miRNeasy Mini Kit (Qiagen). […] Fold change in mRNA expression was calculated using the comparative cycle method (2^−ΔΔCt).

obese patients = settings: cited from earlier work
[7] = DIO mice, 10 mg/kg daily oral gavage, 4 weeks
[8] = after 4 weeks of treatment, HFD+SR vs both HFD+Veh and HFD-PFSR, DEXA
[9] = epididymal adipose tissue of DIO mice, previous report

Cc1c(C(=O)NN2CCCCC2)nn(-c2ccc(Cl)cc2Cl)c1-c1ccc(Cl)cc1 [SR141716A, 5-(4-chlorophenyl)-1-(2,4-dichlorophenyl)-4-methyl-N-piperidin-1-ylpyrazole-3-carboxamide]
metabolic parameters (fasting blood glucose, insulin, HOMA-IR, total cholesterol, triglycerides) (DIO mice [1]): improvement in metabolic parameters
body weight (DIO mice [2]; [7]): acute and persistent weight loss
calorie intake (DIO mice [2]; [7]): transient reduction of calorie intake
changes in lean mass (DIO mice [2]; after 4 weeks of treatment, HFD+SR vs HFD+Veh and HFD-PFSR, DEXA): not significant
fat mass (DIO mice [2]; [8]): reduction in the fat mass and fat percentage was significant
fat percentage (DIO mice [2]; [8]): reduction in the fat mass and fat percentage was significant
Klf4 expression (macrophage CB1; BMDM): induction of Klf4 and Stat6
Stat6 expression (macrophage CB1; BMDM): induction of Klf4 and Stat6
Netrin-1 secretion (macrophage CB1; macrophages, ELISA): reduced
Netrin-1 expression at protein and transcription level ([3]; ATM, HFD+SR vs HFD+Veh, Western blot and qRT-PCR): significantly reduced
miR-466 family expression ([3]; ATMs, microarray validated by qRT-PCR, regardless of calorie intake): down-regulated
Agap2 expression ([3]; ATMs, qRT-PCR): increased
miR-762 expression ([3]; ATMs, qRT-PCR): reduced
Unc5b expression ([3]; HFD+SR vs HFD+Veh): downregulated
migration towards CCL19 [4]: higher migration towards CCL19
number of pro-inflammatory M1 macrophages in adipose tissue (DIO mice [5]; HFD+SR vs HFD+Veh, previously demonstrated): significant decrease
ATM infiltration (DIO mice [5]; [9]): reduces both ATM infiltration and M1 polarization
M1 polarization (DIO mice [5]; [9]): reduces both ATM infiltration and M1 polarization
Arg1 (M2) expression [6]: increased expression of Arg1
Nos2 (M1) expression [6]: lowered Nos2 expression
weight loss (obese patients; obese patients, compared with placebo): greater weight loss
adverse effects (obese patients; reason for removal from the market): adverse psychiatric effects
